Results as given in ChEMBL document CHEMBL5543140 (J Med Chem, 2024).
The source made the active and inactive calls. The calls are words filed in the database; no cut-off is given here.

Legend:
[1] = Ex vivo binding in C57BL/6J mouse brain frontal cortex assessed as inhibition of [3H]Cimbi-36 binding at 1 mg/kg, sc measured after 160 mins by liquid scintillation counting analysis (reference value: 0%); type: functional; settings: 2.667 h
[2] = Ex vivo binding in C57BL/6J mouse brain frontal cortex assessed as inhibition of [3H]Cimbi-36 binding at 1 mg/kg, sc measured after 360 mins by liquid scintillation counting analysis (reference value: 0%); type: functional; settings: 6 h
[3] = biological target: 5-hydroxytryptamine receptor 2B (Homo sapiens, UniProt P41595); assay: Agonist activity at human 5-HT2B receptor expressed in CHO cells assessed as IP2 production measured after 30 mins incubation by HTRF assay; type: functional, cell-based
[4] = AUCinf in beagle dog at 0.4 mg/kg, iv measured upto 24 hrs; type: ADME, organism-based, Canis lupus familiaris; settings: in vivo
[5] = Cmax in beagle dog at 2 mg/kg, po measured upto 24 hrs; type: ADME, organism-based, Canis lupus familiaris; settings: in vivo
[6] = Volume of distribution in Wistar rat plasma at 1 mg/kg, iv measured upto 48 hrs; type: ADME, organism-based
[7] = system: Hippocampus; assay: Induction of neuroplasticity in C57BL/6J mouse assessed as increase in NPTN mRNA expression in brain hippocampus at 3 mg/kg, sc single dose by RT-PCR analysis; type: functional, organism-based
[8] = Metabolic stability in dog liver S9 fractions assessed as half life; type: ADME, subcellular, Canis lupus familiaris; settings: liver S9 fraction
[9] = Metabolic stability in monkey liver S9 fractions assessed as half life; type: ADME, subcellular, Macaca fascicularis; settings: cynomolgus monkey, liver S9 fraction
[10] = Renal clearance in beagle dog at 0.4 mg/kg, iv measured upto 24 hrs; type: ADME, organism-based, Canis lupus familiaris; settings: in vivo
[11] = Half life in beagle dog at 0.4 mg/kg, iv measured upto 24 hrs; type: ADME, organism-based, Canis lupus familiaris; settings: in vivo
[12] = Ex vivo binding in C57BL/6J mouse brain frontal cortex assessed as specific binding [3H]Cimbi-36 at 1 mg/kg, sc measured after 160 mins by liquid scintillation counting analysis (reference value: 1092 +/- 53); type: functional; settings: 2.667 h
[13] = CSF to brain ratio in male Sprague-Dawley rat at 1 mg/kg, iv measured upto 8 hrs by LC-MS/MS analysis; type: ADME, organism-based; settings: in vivo
[14] = system: Hippocampus; assay: Induction of neuroplasticity in C57BL/6J mouse assessed as increase in CREB1 mRNA expression in brain hippocampus at 0.3 mg/kg, sc single dose by RT-PCR analysis; type: functional, organism-based
[15] = Metabolic stability in human liver S9 fractions assessed as half life; type: ADME, subcellular; settings: liver S9 fraction
[16] = AUClast in beagle dog at 2 mg/kg, po measured upto 24 hrs; type: ADME, organism-based, Canis lupus familiaris; settings: in vivo
[17] = system: Hippocampus; assay: Induction of neuroplasticity in C57BL/6J mouse assessed as increase in PSD-95 mRNA expression in brain hippocampus at 3 mg/kg, sc single dose by RT-PCR analysis; type: functional, organism-based
[18] = system: Mus musculus; assay: Psychedelic effect in sc dosed C57BL/6J mouse assessed as induction of 5-HT2A receptor dependent head-twitch responses by visual observation measured within 10 mins; type: functional, organism-based; settings: dose 0.1-3 mg/kg
[19] = MRTlast in Wistar rat plasma at 1 mg/kg, iv measured upto 48 hrs; type: ADME, organism-based
[20] = Ex vivo binding in C57BL/6J mouse brain frontal cortex assessed as specific binding [3H]Cimbi-36 at 1 mg/kg, sc measured after 360 mins by liquid scintillation counting analysis (reference value: 1092 +/- 53); type: functional; settings: 6 h
[21] = system: Mus musculus; assay: Induction of neuroplasticity in C57BL/6J mouse assessed as increase in BDNF mRNA expression in brain frontal cortex at 3 mg/kg, sc single dose by RT-PCR analysis; type: functional, organism-based
[22] = AUClast in Wistar rat brain at 1 mg/kg, iv measured upto 48 hrs; type: ADME, organism-based
[23] = biological target: 5-hydroxytryptamine receptor 6 (Homo sapiens, UniProt P50406); assay: Displacement of [3H]LSD from 5-HT6 receptor (unknown origin) assessed as inhibition binding at 10 uM relative to control
[24] = Half life in male Sprague-Dawley rat brain at 1 mg/kg, iv measured upto 8 hrs by LC-MS/MS analysis; type: ADME, organism-based
[25] = AUClast in male Sprague-Dawley rat plasma at 1 mg/kg, iv measured upto 8 hrs by LC-MS/MS analysis; type: ADME, organism-based
[26] = Tmax in beagle dog at 2 mg/kg, po measured upto 24 hrs; type: ADME, organism-based, Canis lupus familiaris; settings: in vivo
[27] = Cmax in mouse C57BL/6J brain at 3 mg/kg, sc measured after 2 hrs; type: ADME, organism-based
[28] = Ex vivo binding in C57BL/6J mouse brain frontal cortex assessed as specific binding [3H]Cimbi-36 at 1 mg/kg, sc measured after 100 mins by liquid scintillation counting analysis (reference value: 1092 +/- 53); type: functional; settings: 1.667 h
[29] = biological target: 5-hydroxytryptamine receptor 7 (Homo sapiens, UniProt P34969); assay: Displacement of [3H]LSD from 5-HT7 receptor (unknown origin) assessed as inhibition binding
[30] = Tmax in Wistar rat plasma at 1 mg/kg, iv measured upto 48 hrs; type: ADME, organism-based
[31] = Ex vivo binding in C57BL/6J mouse brain frontal cortex assessed as specific binding [3H]Cimbi-36 at 1 mg/kg, sc measured after 15 mins by liquid scintillation counting analysis (reference value: 1092 +/- 53); type: functional; settings: 0.25 h
[32] = Metabolic stability in human liver microsomes assessed as half life at 1 uM incubated for 120 mins in presence of NADPH; type: ADME, Microsome
[33] = CSF to plasma ratio in male Sprague-Dawley rat at 1 mg/kg, iv measured upto 8 hrs by LC-MS/MS analysis; type: ADME, organism-based; settings: CSF and plasma
[34] = Brain to plasma ratio in Wistar rat at 5 mg/kg, po measured upto 48 hrs; type: ADME, organism-based; settings: brain and plasma, read-out: BPR
[35] = system: Hippocampus; assay: Induction of neuroplasticity in C57BL/6J mouse assessed as increase in BDNF mRNA expression in brain hippocampus at 0.3 mg/kg, sc single dose by RT-PCR analysis; type: functional, organism-based
[36] = Metabolic stability in rat liver microsomes assessed as half life at 1 uM incubated for 120 mins in presence of NADPH; type: ADME, Microsome
[37] = system: Mus musculus; assay: Psychedelic effect in C57BL/6J mouse assessed as development of tolerance/ tachyphylaxis at 0.3 mg/kg, sc measured on day 4 by head-twitch responses test; type: functional, organism-based; settings: time 4.0 day
[38] = system: Hippocampus; assay: Induction of neuroplasticity in C57BL/6J mouse assessed as increase in […] mRNA expression in brain hippocampus at 0.3 mg/kg, sc single dose by RT-PCR analysis; type: functional, organism-based
[39] = Metabolic stability in rat hepatocytes assessed as half life at 10 uM; type: ADME, cell-based, Hepatocyte
[40] = Cmax in male Sprague-Dawley rat brain at 1 mg/kg, iv measured upto 8 hrs by LC-MS/MS analysis; type: ADME, organism-based
[41] = Drug metabolism in human hepatocytes at 10 uM by HRAMS analysis; type: ADME, cell-based, Hepatocyte
[42] = system: Hippocampus; assay: Induction of neuroplasticity in C57BL/6J mouse assessed as increase in PSD-95 mRNA expression in brain hippocampus at 0.3 mg/kg, sc single dose by RT-PCR analysis; type: functional, organism-based
[43] = Absolute oral bioavailability in Wistar rat plasma at 5 mg/kg, […] measured upto 48 hrs; type: ADME, organism-based

5-hydroxytryptamine receptor 7, sequence (P34969 whole entry): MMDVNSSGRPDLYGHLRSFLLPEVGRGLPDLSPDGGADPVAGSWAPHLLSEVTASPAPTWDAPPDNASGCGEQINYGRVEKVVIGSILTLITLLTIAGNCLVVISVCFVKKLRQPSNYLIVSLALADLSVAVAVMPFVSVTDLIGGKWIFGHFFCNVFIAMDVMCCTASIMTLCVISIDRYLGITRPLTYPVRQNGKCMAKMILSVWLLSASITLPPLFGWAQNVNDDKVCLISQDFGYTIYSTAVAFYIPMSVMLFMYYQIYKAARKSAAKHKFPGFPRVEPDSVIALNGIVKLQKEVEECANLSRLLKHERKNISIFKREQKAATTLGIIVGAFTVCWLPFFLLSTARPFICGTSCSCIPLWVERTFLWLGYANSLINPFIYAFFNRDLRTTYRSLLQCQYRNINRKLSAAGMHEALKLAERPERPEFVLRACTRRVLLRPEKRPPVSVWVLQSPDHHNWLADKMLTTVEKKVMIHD
5-hydroxytryptamine receptor 6, sequence (P50406 whole entry): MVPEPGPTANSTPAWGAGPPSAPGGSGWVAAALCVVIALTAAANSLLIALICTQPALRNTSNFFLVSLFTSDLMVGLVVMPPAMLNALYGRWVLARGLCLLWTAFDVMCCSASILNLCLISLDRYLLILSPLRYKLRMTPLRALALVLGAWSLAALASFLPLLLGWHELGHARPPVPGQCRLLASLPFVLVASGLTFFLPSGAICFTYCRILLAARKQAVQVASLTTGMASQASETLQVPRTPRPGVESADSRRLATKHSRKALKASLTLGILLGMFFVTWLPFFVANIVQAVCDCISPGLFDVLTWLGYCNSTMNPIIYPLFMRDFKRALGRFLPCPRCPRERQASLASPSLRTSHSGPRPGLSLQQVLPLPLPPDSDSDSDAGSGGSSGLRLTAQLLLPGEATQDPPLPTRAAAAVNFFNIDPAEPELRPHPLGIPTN
5-hydroxytryptamine receptor 2B, sequence (P41595 whole entry): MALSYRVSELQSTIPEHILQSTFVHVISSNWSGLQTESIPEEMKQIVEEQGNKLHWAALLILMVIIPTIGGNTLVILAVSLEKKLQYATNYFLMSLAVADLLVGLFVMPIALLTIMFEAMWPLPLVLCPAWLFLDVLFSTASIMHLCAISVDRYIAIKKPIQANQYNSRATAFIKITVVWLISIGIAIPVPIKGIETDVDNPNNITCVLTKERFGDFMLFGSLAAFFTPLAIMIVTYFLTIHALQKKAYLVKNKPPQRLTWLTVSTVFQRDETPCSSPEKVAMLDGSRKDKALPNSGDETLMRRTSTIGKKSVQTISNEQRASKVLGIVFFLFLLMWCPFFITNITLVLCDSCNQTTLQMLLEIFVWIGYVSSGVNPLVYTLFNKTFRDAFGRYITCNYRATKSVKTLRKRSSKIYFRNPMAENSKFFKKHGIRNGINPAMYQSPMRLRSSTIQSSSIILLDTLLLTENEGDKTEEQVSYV

Structure (SMILES): COc1cc([Se]C(F)(F)F)c(OC)cc1CCN.Cl
- inhibition in vivo at 1 mg/kg [1]: 33%
- inhibition in vivo at 1 mg/kg [2]: 25%
- EC50 [3]: 88 nM
- AUC(0-inf) [4]: 446 ng·h/mL
- Cmax [5]: 263 ng/mL
- Vd [6]: 22.2 L/kg
- Activity [7]: inactive
- half-life [8]: > 2 h
- half-life [9]: 0.633 h
- CL renal at 24 h [10]: 0.6 mL/min/kg
- half-life [11]: 4.31 h
- Activity [12]: 736
- Ratio [13]: 0.016
- Activity [14]: inactive
- half-life [15]: > 2 h
- AUC(0-t) at 24 h [16]: 2720 ng·h/mL
- Activity [17]: inactive
- Activity [18]: Dose-Dependent Effect
- MRT last at 48 h [19]: 0.62 h
- Activity [20]: 820
- Activity [21]: Active
- AUC(0-t) at 48 h [22]: 2910 ng·h/mL
- inhibition [23]: 90%
- half-life [24]: 1.34 h
- AUC(0-t) at 8 h [25]: 207 ng·h/mL
- Tmax [26]: 2 h
- Cmax [27]: 3160 ng/g
- Activity [28]: 820
- Ki [29]: 4920 nM
- Tmax [30]: 4.98 min
- Activity [31]: 971
- half-life at 1 µM [32]: > 2 h
- Kp at 8 h [33]: 0.2
- Kp at 48 h [34]: 57.9
- Activity [35]: inactive
- half-life at 1 µM [36]: 0.917 h
- Activity [37]: Active
- Activity [38]: inactive
- half-life at 10 µM [39]: 16 h
- Cmax [40]: 1490 ng/mL
- Drug metabolism [41]: Metabolite_Notdetected
- Activity [42]: inactive
- bioavailability [43]: 19.1%
